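Values below derive from 48-hour exposures of cells grown in 96-well plates, with endpoints linearly interpolated between the two concentrations bracketing the appropriate inhibition level. At the TGI there is no net growth.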
Key:
Test in all cases: DTP human tumour cell line panel, 48 h
[1] = system: A498 renal
[2] = system: EKVX NSCLC
[3] = system: HCT-15 colon
[4] = system: K-562 leukemia
[5] = system: MOLT-4 leukemia
[6] = system: NCI-H226 lung
[7] = system: OVCAR-3 ovarian
[8] = system: PC-3 prostate
[9] = system: RPMI-8226 leukemia
[10] = system: SF-268 CNS
[11] = system: SF-539 CNS
[12] = system: SK-MEL-5 melanoma
[13] = system: SK-OV-3 ovarian
[14] = system: SR leukemia
[15] = system: SW-620 colon
[16] = system: T-47D breast
[17] = system: HL-60(TB) leukemia
[18] = system: KM20L2 colon
[19] = system: LXFL 529 NSCLC
[20] = system: HCC-2998 colon

COc1ccc2[nH]c3c(C)c4ccnc(NCCCN(C)CCCNc5ccc6ncn7c8ccccc8c(=O)c5c67)c4c(C)c3c2c1
TGI [1]: 15.2 µM | TGI [2]: 2.48 µM | TGI [3]: 3.45 µM | TGI [4]: 4.25 µM | TGI [5]: 3.13 µM | TGI [6]: 2.54 µM | TGI [7]: 6.56 µM | TGI [8]: 4.21 µM | TGI [9]: 4.56 µM | TGI [10]: 17.3 µM | TGI [11]: 0.379 µM | TGI [12]: 4.61 µM | TGI [13]: 6.8 µM | TGI [14]: 1.61 µM | TGI [15]: 25 µM | TGI [16]: 9.46 µM

O=C1C(Cl)N(c2cccc([N+](=O)[O-])c2)C1c1c[nH]c2ccccc12 (centres undefined)
TGI [2]: 96.8 µM | TGI [17]: > 100 µM | TGI [4]: 64.1 µM | TGI [18]: 53.6 µM | TGI [19]: 20.4 µM | TGI [5]: > 100 µM | TGI [7]: 54.8 µM | TGI [9]: 52.2 µM | TGI [10]: > 100 µM | TGI [11]: 40.7 µM | TGI [12]: 34.5 µM | TGI [13]: 38 µM | TGI [14]: 57 µM | TGI [15]: > 100 µM

NC12CCC(CC1=O)C2 (centres undefined)
TGI [2]: > 100 µM | TGI [20]: > 100 µM | TGI [3]: > 100 µM | TGI [17]: > 100 µM | TGI [4]: > 100 µM | TGI [5]: > 100 µM | TGI [6]: > 100 µM | TGI [7]: > 100 µM | TGI [8]: > 100 µM | TGI [9]: > 100 µM | TGI [10]: > 100 µM | TGI [11]: > 100 µM | TGI [12]: > 100 µM | TGI [13]: > 100 µM | TGI [14]: > 100 µM | TGI [15]: > 100 µM | TGI [16]: > 100 µM

COc1cc2c(cc1OC)C(=O)/C(=C/c1cc(OC)c(OC)c(OC)c1)C2
TGI [1]: > 100 µM | TGI [3]: > 100 µM | TGI [17]: > 100 µM | TGI [4]: > 100 µM | TGI [5]: > 100 µM | TGI [6]: > 100 µM | TGI [7]: > 100 µM | TGI [8]: > 100 µM | TGI [9]: > 100 µM | TGI [12]: > 100 µM | TGI [13]: > 100 µM | TGI [14]: > 100 µM | TGI [16]: > 100 µM

COC(=O)C1=C(OC(=O)/C=C/c2ccc(Cl)cc2)C(C(=O)OC)[C@@]2(O)[C@@H](C(=O)OC)[C@H](C)C[C@@H]1[C@@H]2C(=O)OC (some centres undefined)
TGI [2]: 71.8 µM | TGI [3]: 57 µM | TGI [17]: 36.1 µM | TGI [4]: > 100 µM | TGI [5]: 96.4 µM | TGI [6]: 61 µM | TGI [7]: > 100 µM | TGI [8]: 69 µM | TGI [10]: 42.9 µM | TGI [11]: > 100 µM | TGI [12]: 32.2 µM | TGI [13]: > 100 µM | TGI [15]: > 100 µM | TGI [16]: > 100 µM

From PubChem BioAssay (NCI)
